# Assay results taken from patent US20250270648A1, “MOLECULAR SIGNATURE FOR ASSESSING THE RESPONSIVENESS OF CANCER TO MITOCHONDRIA-TARGETED ANTIOXIDANTS” (UNIVERSITÉ CATHOLIQUE DE LOUVAIN, priority 2021, published 2025).
# Legend:
# MDA-MB-231 spheroids = assay: Spheres / stem-like spheroids; type: cell-based, human
# Method: (§1) Total mRNA from MDA-MB-231, SkBr3 and MDA-MB-436 cells treated ±MitoQ for 48 h was extracted using the NucleoSpin RNA Kit (Macherey-Nagel®). Total mRNA from primary tumors was extracted with Tri reagent (Molecular Research Center®, Cat #TR118). mRNAs were quantified by the Qubit BR dsRNA assay kit (Thermo Fisher Scientific®), and mRNA integrity was evaluated on an Agilent® 2100 Bioanalyzer with the RNA 6000 nano kit (Agilent®). It was reverse transcribed in complementary DNA using the High-Capacity cDNA Reverse Transcription Kit (Applied Biosystems®, cat #4368814) according to manufacturer's protocol. Complementary DNA (500 ng) was amplified by real time quantitative PCR (RT-qPCR) using the low ROX SYBR Master Mix dTTP Blue (Eurogentec®) and primers listed in Table 5 and Table 6 on a ViiA 7 Real-Time PCR System (Thermo Fisher Scientific®). Gene expression was normalized to β-actin gene expression.
# (§2) 3D models were used to obtain an enriched population in stem cells. For that, 10^4 MDA-MB-231, SkBr3 or MDA-MB-436 cancer cells were grown in suspension using 10 cm dishes coated with Polyhema in stem-cell medium: DMEM/F-12 (Gibco®, cat #11320033) supplemented with 100 units/mL penicillin, 100 μg/mL streptomycin, 20 μL/mL B27 (Gibco®, cat #17504044), 20 ng/mL human recombinant epithelial growth factor (EGF) (Peprotech®, cat #AF-100-15), 10 ng/mL basic fibroblast growth factor (bFGF; Peprotech®, cat #100-18B) and 2.5 mg/mL insulin. When spheres reached around 100 μm in diameter, they were washed with PBS and dissociated with accutase (Stem Cell Technology®, cat #07920) in order to have single cells again. At the third passage, dissociated spheres were treated ±MitoQ for 96 h. Images were captured on Axiovert™ 40 CFL microscope equipped with a MRC camera. At the end of the treatment, living cells were collected for RNA extraction.
# (§3) Stem like-spheroids were prepared by seeding 5,000 MDA-MB-231, SkBr3 or MDA-MB-436 dissociated spheres/well in ultra-Low attachment 96-well plates (Corning®, cat #7007) in stem cell medium supplemented as described above. After overnight formation, spheroids were treated ±MitoQ for 96 h. Spheroid growth was monitored using an Axio Observer live-cell phase contrast microscope (Zeiss®).
# SkBr3 spheroids = assay: Spheres / stem-like spheroids; type: cell-based, human
# Method: as §1, §2, §3
# [1] = test system: MDA-MB-231 human breast cancer cells; assay: Metastatic take assay, tail vein injection of pretreated cells; type: in vivo, mouse; conditions: cells pretreated 6 h with 1 μM MitoQ
# Method: For metastasis take assays, cancer cells were pretreated ±MitoQ for 6 h, and 10^6 viable cells were injected into the tail vein of five weeks-old female Rj:NMRI-Foxn1nu/nu mice (Janvier). After 4 weeks, mice were sacrificed and the lungs insufflated with 3 mL of Indian ink (15% in ddH2O). Mouse lungs were removed, washed with PBS and incubated overnight in Fekete's solution (700 mL/L 100% ethanol, 32 mL/L 37% formalin, 40 mL/L glacial acetic acid, diluted in ddH2O). The next morning, lungs were transferred to a 70% ethanol solution and were further examined under a Stemi 2000-C dissection stereomicroscope (Zeiss®) to count the number of metastasis per lung.
# [2] = test system: human MCF7 breast cancer cells; assay: Cell viability, CellTiter-Glo; type: cell-based; conditions: increasing doses of DXR ±100 nM MitoQ, 48 h
# Method: Cells were plated in 96-well plates and left to adhere for 16 hours. In order to avoid reaching full confluence at the endpoint, starting cell count was defined according to doubling time and the duration of the experiment. Following adhesion, cells were treated with the indicated compounds for 48 h, after which staining was done with a CellTiter-Glo Luminescent Cell Viability assay (Promega®, catalogue #G7570), according to supplier's instructions. This method is based on the quantification of intracellular ATP levels.
# MDA-MB-231 cells = assay: Clonogenic assay, adherent; type: cell-based, human; conditions: MitoQ 100 nM, 48 h
# Method: (§4) For adherent assays, MDA-MB-231 and SKBR3 cells were pre-treated for 48 h±MitoQ, and seeded (1,000 to 2,000 cells/well) in 6-well plates. After colony formation (2 weeks), cells were fixed and stained with 0.5% crystal violet in a 10% ethanol solution, for 30 min. Colonies were washed with water and counted. Results are expressed as surviving fraction (SF), where […].
# SkBr3 cells = assay: Clonogenic assay, adherent; type: cell-based, human; conditions: MitoQ 100 nM, 48 h
# Method: as §4
# [3] = test system: primary breast tumors of MMTV-PyMT mice; assay: RT-qPCR of primary breast tumors; type: in vivo; conditions: FEC + MitoQ 18 mg/kg daily oral; mouse transcripts; P<0.01; read-out: fold induction of SLC7A11, SERPINE1 and TXNRD1 (each independently)
# Method: as §1
# Female FVB/N-Tg(MMTV-PyMT)634Mul/J (MMTV-PyMT) mice that express the polyomavirus middle T antigen spontaneously develop orthotropic multifocal breast adenocarcinomas that spontaneously disseminate metastases to the lungs during mouse lifetime. […] They were sacrificed at 16 weeks-old, and the lungs insufflated with Indian ink for metastasis quantification as described above. […]
structure (smiles),measurement,setting,value
COC1=C(OC)C(=O)C(CCCCCCCCCC[P+](c2ccccc2)(c2ccccc2)c2ccccc2)=C(C)C1=O [MitoQ],dose sufficient to destabilize already formed spheroids,MDA-MB-231 spheroids,100 nM
same,"mRNA expression of stem cells markers POU5F1/(Oct4), NANOG and SOX2",MDA-MB-231 spheroids; MitoQ 250 nM,significant decrease
same,spheroid formation,MDA-MB-231 spheroids; MitoQ 250 nM,inhibited
same,NANOG and SOX2 mRNA expression,SkBr3 spheroids,decreased
same,spheroid formation and spheroid destabilization,SkBr3 spheroids,Neither inhibition of spheroid formation not spheroid destabilization was seen
same,mice metastasis-free,"[1]; at necropsy, four weeks",36.4%
same,mice with <2 metastasis,"[1]; at necropsy, four weeks",27.2%
same,mice with >2 lung metastases,"[1]; at necropsy, four weeks",36.4%
same,metastasis developed vs mice that received vehicle-treated cells,[1]; four weeks after injection of 10^6 cells,significantly less
same,DXR-induced cell killing,[2],did not interfere
same,clonogenicity in Petri dishes allowing adhesion,MDA-MB-231 cells,largely inhibited
same,clonogenicity in Petri dishes allowing adhesion,SkBr3 cells,largely inhibited
same,fold induction at 18 mg/kg,[3],≥ 2
